# Reference: patent US6608111B1, “Method for treating or preventing prostatic conditions” (Southern Illinois University Office of Research, …, priority 1998, dated 2003)
# Test system: dialyzed LDL
# Assay: Oxidized LDL lag time assay (antioxidant capacity)
# Set-up: species or system human
# Details: 3 μM Cu2SO4, drugs at 10^−4, 10^−5, 10^−6, and 10^−7 M
# Method: Experiments were carried out on dialyzed LDL collected from four fasted persons. The LDL was used within 10 days of dialysis. The oxidizing agent was 3 μM […]; phosphate buffered saline was used to control pH, and all drugs were dissolved in ethanol; final concentrations of each drug in the assays were 10^−4, 10^−5, 10^−6, and 10^−7 M. The combined results are shown in FIG. 6.
row,Structure (SMILES),antioxidant activity (shift in lag time of LDL oxidation)
1,O=c1c(-c2ccc(O)cc2)coc2cc(O)ccc12 [daidzein],Less antioxidant activity
2,O=c1c(-c2ccc(O)cc2)coc2cc(O)cc(O)c12 [genistein],Less antioxidant activity
